The target in one data set is T1, human KOP (Homo sapiens, UniProt P41145).
T1 construct: expressed in transfected cells; host or cells: CHO cells
As to the kind of experiment: cell-based. Particulars: for KOP pEC50 (CL95%): agonist potency, calcium mobilization; for KOP pEC50 (CL95%) / KOP α ± SEM: inactive = inactive up to 1 μM; for KOP α ± SEM: efficacy (intrinsic activity) relative to dynorphin A. (A change in cytosolic calcium serves as a functional read-out for many receptors and channels.)

For data set [1], the target named is T2, human DOP (Homo sapiens, UniProt P41143). The data set is classed as cell-based. Set-up: expressed in transfected cells; host or cells: CHO cells. Particulars: inactive = inactive up to 1 μM; for DOP pEC50 (CL95%): agonist potency, calcium mobilization; for DOP α ± SEM: efficacy (intrinsic activity) relative to DPDPE.
The target of data set [2] is T3, human MOP (Homo sapiens, UniProt P35372). The note with it: agonist potency, calcium mobilization; inactive = inactive up to 1 μM.
For the next data set, the target named is human NOP (Homo sapiens, UniProt P41146). In words: calcium mobilization assay, CHO cells co-expressing NOP and Gαqi5. The note with it: for NOP pEC50 (CL95%): agonist potency, calcium mobilization, inactive = inactive up to 1 μM.
Data set [3] addresses T4, human nociceptin/orphanin FQ peptide receptor (NOP) (Homo sapiens, UniProt P41146).
T4 construct: expressed in transfected cells; host or cells: CHO cells (CHOhNOP; gift from GSK), membrane homogenate
As to the kind of experiment: [leucyl-3H]nociceptin displacement binding assay. The procedure: Radioactivity was determined after an 8 h extraction period.
(§1) The IC50 values were determined from the logarithmic concentration–displacement curves, and the values of the inhibitory constants (Ki) were calculated according to the equation of Cheng and Prusoff.

The test system of data set [4] is mice. In words: mouse hot-plate test (antinociception). The note with it: i.t. administration, value with range in parentheses. On the technique in general: Hot-plate and tail-flick tests time the reaction to a heat stimulus.
For data set [5], the target named is T3, human MOP. In words: cell-based.
In data set [6] the target is T2, human DOP. As to the kind of experiment: [3H]deltorphin-2 displacement binding assay. Set-up: purchased PerkinElmer; host or cells: CHO cells. Particulars: for pKi DOP: displacement of [3H]deltorphin-2 from CHOhDOP cell homogenates, mean ± SEM, n = 5. The procedure: (§2) Membranes were incubated in 0.5 mL of 50 mM Tris/HCl (pH = 7.4), 0.5% bovine serum albumin (BSA), with a number of peptidase inhibitors (bacitracin, bestatin, captopril) and various concentrations of radioligands for 2 h at 25 °C. Non-specific binding was assessed in the presence of […] naloxone. Assays were incubated at room temperature for […] and reactions were terminated via filtration through Whatman GF/B filters, soaked in 0.5% polyethyleneimine (PEI), using Millipore Sampling Manifold (Billerica, MA, USA). Radioactivity was determined after an 8 h extraction period.
as §1
Background: Loss of bound radioactivity is the signal in a displacement assay; it reports binding, not function.

The test system of data set [7] is mice. As to the kind of experiment: rotarod test (motor coordination). The data set is classed as in vivo. The note with it: 6.2 nmol/animal, i.t.; compared to control group. Here is the method: Rotarod apparatus (Ugo Basile, No. 8466, Italy) was used to estimate the probable influence of peptide on motor coordination of animals. In the training period, 3 trials were conducted for 3 consecutive days. Animals that were able to stay on the rotating (16 revolutions/min) bar more than 180 s were chosen for the tests. In the experimental session, each animal was tested on the rotarod, and duration to fall from the rotating bar was noted.

Data set [8] concerns the target T3, human MOP. In words: [3H]DAMGO displacement binding assay. Set-up: purchased PerkinElmer; host or cells: CHO cells. The procedure: as §2, §1
Another data set has as its target T5, RP-170 (lactam 2-5).
T5 chain: Y[dK]FFD-NH2
In words: radioligand competition ([3H]deltorphin-2).

In another data set the target is T6, KW-495 (lactam 2-5).
T6 chain: Y[dK]FFDRYYRIK-NH2
As to the kind of experiment: radioligand competition ([3H]deltorphin-2).

The next data set has as its target T7, KW-496 (lactam 2-5).
T7 chain: Y[dK]FFDGGGRYYRIK-NH2
As to the kind of experiment: radioligand competition ([3H]deltorphin-2).

“Also recorded” adds a separate entry of the source. Positions of bridges follow the written chain, without caps; N, C: chain ends. Non-standard residues stand in square brackets, D forms with d. Residues, ends and D or L forms follow the SMILES beside them. No end group written: not given here.

T1 sequence (P41145 whole entry): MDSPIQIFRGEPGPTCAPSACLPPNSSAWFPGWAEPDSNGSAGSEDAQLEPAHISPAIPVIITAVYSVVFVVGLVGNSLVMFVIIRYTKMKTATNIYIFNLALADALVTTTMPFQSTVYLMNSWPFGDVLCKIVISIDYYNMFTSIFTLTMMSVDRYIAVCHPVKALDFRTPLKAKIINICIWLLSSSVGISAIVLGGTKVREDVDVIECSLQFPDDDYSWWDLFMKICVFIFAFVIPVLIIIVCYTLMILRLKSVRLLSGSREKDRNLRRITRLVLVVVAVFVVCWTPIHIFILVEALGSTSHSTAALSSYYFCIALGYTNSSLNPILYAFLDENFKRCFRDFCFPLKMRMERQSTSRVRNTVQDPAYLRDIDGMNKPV
T3 sequence (P35372 whole entry): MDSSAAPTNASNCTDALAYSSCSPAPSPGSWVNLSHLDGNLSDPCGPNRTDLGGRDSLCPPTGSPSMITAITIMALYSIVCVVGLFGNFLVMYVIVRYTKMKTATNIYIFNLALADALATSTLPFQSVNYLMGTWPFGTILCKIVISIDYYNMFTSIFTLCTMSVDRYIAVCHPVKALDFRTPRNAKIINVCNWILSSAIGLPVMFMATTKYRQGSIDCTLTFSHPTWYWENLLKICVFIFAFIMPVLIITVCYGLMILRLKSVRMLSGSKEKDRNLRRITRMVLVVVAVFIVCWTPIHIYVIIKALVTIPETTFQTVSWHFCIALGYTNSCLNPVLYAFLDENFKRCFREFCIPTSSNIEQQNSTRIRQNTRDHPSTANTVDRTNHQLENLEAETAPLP
human NOP, sequence (P41146 whole entry): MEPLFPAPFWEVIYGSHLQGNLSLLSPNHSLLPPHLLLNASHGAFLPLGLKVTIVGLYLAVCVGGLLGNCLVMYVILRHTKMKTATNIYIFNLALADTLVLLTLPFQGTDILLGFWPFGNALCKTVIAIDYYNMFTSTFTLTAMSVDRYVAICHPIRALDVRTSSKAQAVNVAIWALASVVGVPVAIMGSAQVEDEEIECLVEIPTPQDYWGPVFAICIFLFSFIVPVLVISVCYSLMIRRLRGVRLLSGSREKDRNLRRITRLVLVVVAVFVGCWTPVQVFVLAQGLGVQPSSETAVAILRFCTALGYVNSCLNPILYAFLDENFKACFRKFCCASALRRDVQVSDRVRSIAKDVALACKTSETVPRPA
T4 sequence (P41146 whole entry): as above

Turning to `CC[C@H](C)[C@H](NC(=O)[C@H](CCCNC(=N)N)NC(=O)[C@H](Cc1ccc(O)cc1)NC(=O)[C@H](Cc1ccc(O)cc1)NC(=O)[C@H](CCCNC(=N)N)NC(C)=O)C(=O)N[C@@H](CCCCN)C(N)=O` [Ac-RYYRIK-NH2, Ac-Arg-Tyr-Tyr-Arg-Ile-Lys-NH2], at human KOP, the “KOP pEC50 (CL95%)” value was “inactive” and the “KOP α ± SEM” value is “inactive”. For the same molecule, on human DOP [1], the “DOP pEC50 (CL95%)” value was “inactive” and the “DOP α ± SEM” value was “inactive”. Further, the “MOP pEC50 (CL95%)” value at human MOP [2] was “inactive”.

Turning to `CC1(C)SSC(C)(C)[C@@H](NC(=O)[C@@H](N)Cc2ccc(O)cc2)C(=O)NCC(=O)N[C@@H](Cc2ccccc2)C(=O)N[C@H]1C(=O)O` [DPDPE], at human KOP, the “KOP pEC50 (CL95%)” value is “inactive” and the “KOP α ± SEM” value is “inactive”. Also, the “NOP pEC50 (CL95%)” value at human NOP is “inactive”.

The term Ki denotes a measure of affinity in units of concentration, obtained from inhibition or displacement. The term EC50 denotes the concentration at which the effect is half-maximal. Turning to `CC[C@H](C)[C@H](NC(=O)[C@H](CCCNC(=N)N)NC(=O)[C@H](Cc1ccc(O)cc1)NC(=O)[C@H](Cc1ccc(O)cc1)NC(=O)[C@H](CCCNC(=N)N)NC(=O)[C@@H]1CC(=O)NCCCC[C@@H](NC(=O)[C@@H](N)Cc2ccc(O)cc2)C(=O)N[C@@H](Cc2ccccc2)C(=O)N[C@@H](Cc2ccccc2)C(=O)N1)C(=O)N[C@@H](CCCCN)C(N)=O` [KW-495, Tyr-c[D-Lys-Phe-Phe-Asp]-Arg-Tyr-Tyr-Arg-Ile-Lys-NH2] (HELM PEPTIDE1{Y.[dK].F.F.D.R.Y.Y.R.I.K.[am]}$PEPTIDE1,PEPTIDE1,2:R3-5:R3$$$V2.0; N-terminus assumed), the inhibitory constant (Ki) in data set [3] was 2.24 nM; at human DOP [6], more than 1000 nM; at human MOP [8], 4.47 nM. Also, the figures for the EC50 on human KOP, at human MOP [5] and on human NOP were 2.82 nM, 8.71 nM and 75.9 nM, respectively. The “DOP pEC50 (CL95%)” value on human DOP [1] was “inactive”. Also, the “DOP α ± SEM” value at human DOP [1] is “inactive”. Moreover, the “ED50 (jumping response)” value in the data set on mice [4] was 4.59 (1.17–18.09) nmol. The “pKi DOP” value on human DOP [6] is reported as “did not bind to DOP”. The “effect on motor coordination (falling latency)” value in the data set with mice [7] is “did not cause any significant effect”.

As to `CC[C@H](C)[C@H](NC(=O)[C@H](CCCNC(=N)N)NC(=O)[C@H](Cc1ccc(O)cc1)NC(=O)[C@H](Cc1ccc(O)cc1)NC(=O)[C@H](CCCNC(=N)N)NC(=O)CNC(=O)CNC(=O)CNC(=O)[C@@H]1CC(=O)NCCCC[C@@H](NC(=O)[C@@H](N)Cc2ccc(O)cc2)C(=O)N[C@@H](Cc2ccccc2)C(=O)N[C@@H](Cc2ccccc2)C(=O)N1)C(=O)N[C@@H](CCCCN)C(N)=O` [KW-496] (HELM PEPTIDE1{Y.[dK].F.F.D.G.G.G.R.Y.Y.R.I.K.[am]}$PEPTIDE1,PEPTIDE1,2:R3-5:R3$$$V2.0), the Ki in [3] was 44.7 nM; at human DOP [6], more than 1000 nM; on human MOP [8], 4.68 nM. For the same molecule, the figures for the EC50 at human KOP and at human MOP [5] were 1.15 nM and 4.9 nM, respectively. Also, the “KOP α ± SEM” value at human KOP is recorded as 1.03 ± 0.02. Moreover, at human DOP [1], the “DOP pEC50 (CL95%)” value is “inactive”. For the same molecule, on human DOP [1], the “DOP α ± SEM” value was “inactive”. On human DOP [6], the “pKi DOP” value is given as “did not bind to DOP”. In addition, the “NOP pEC50 (CL95%)” value on human NOP was “incomplete concentration–response curve; also recorded: Crc incomplete”. In addition, on human NOP (effect at 1 μM relative to N/OFQ, concentration-response curve incomplete), the “NOP α at 1 μM (Crc incomplete)” value is on record as 0.33 ± 0.10.

Take `CC(C)C[C@H](NC(=O)[C@H](CCCCN)NC(=O)[C@H](CCCNC(=N)N)NC(=O)[C@H](C)NC(=O)[C@H](CO)NC(=O)[C@H](CCCCN)NC(=O)[C@H](CCCNC(=N)N)NC(=O)[C@H](C)NC(=O)CNC(=O)[C@@H](NC(=O)[C@H](Cc1ccccc1)NC(=O)CNC(=O)CNC(=O)[C@@H](N)Cc1ccccc1)[C@@H](C)O)C(=O)N[C@@H](C)C(=O)N[C@@H](CC(N)=O)C(=O)N[C@@H](CCC(N)=O)C(=O)O` [N/OFQ]: the “MOP pEC50 (CL95%)” value on human MOP [2] was “inactive”.

For `NC(=O)[C@@H]1CC(=O)NCCCC[C@@H](NC(=O)[C@@H](N)Cc2ccc(O)cc2)C(=O)N[C@@H](Cc2ccccc2)C(=O)N[C@@H](Cc2ccccc2)C(=O)N1` [RP-170, Tyr-c[D-Lys-Phe-Phe-Asp]-NH2, reference compound] (HELM PEPTIDE1{Y.[dK].F.F.D.[am]}$PEPTIDE1,PEPTIDE1,2:R3-5:R3$$$V2.0; N-terminus assumed), the “KOP α ± SEM” value on human KOP stood at 1.00 ± 0.03. On human DOP [1], the “DOP pEC50 (CL95%)” value is “inactive” and the “DOP α ± SEM” value is “inactive”. The molecule also gave a Ki on human DOP [6] of 295 nM. Besides, at human MOP [8], the Ki was 0.617 nM. In addition, at human NOP, the “NOP pEC50 (CL95%)” value is “completely inactive”.

On to `CC[C@H](C)[C@H](NC(=O)[C@H](CCCNC(=N)N)NC(=O)[C@H](CCCNC(=N)N)NC(=O)[C@H](CC(C)C)NC(=O)[C@H](Cc1ccccc1)NC(=O)CNC(=O)CNC(=O)[C@@H](N)Cc1ccc(O)cc1)C(=O)N[C@@H](CCCNC(=N)N)C(=O)N1CCC[C@H]1C(=O)N[C@@H](CCCCN)C(=O)N[C@@H](CC(C)C)C(=O)N[C@@H](CCCCN)C(=O)N[C@@H](Cc1c[nH]c2ccccc12)C(=O)N[C@@H](CC(=O)O)C(=O)N[C@@H](CC(N)=O)C(=O)N[C@@H](CCC(N)=O)C(=O)O` [dynorphin A, reference compound], for which the “DOP α ± SEM” value at human DOP [1] amounted to 1.00. Besides, the “NOP pEC50 (CL95%)” value on human NOP is “inactive”.

B1: DOP (protein)
chain: MEPAPSAGAELQPPLFANASDAYPSACPSAGANASGPPGARSASSLALAIAITALYSAVCAVGLLGNVLVMFGIVRYTKMKTATNIYIFNLALADALATSTLPFQSAKYLMETWPFGELLCKAVLSIDYYNMFTSIFTLTMMSVDRYIAVCHPVKALDFRTPAKAKLINICIWVLASGVGVPIMVMAVTRPRDGAVVCMLQFPSPSWYWDTVTKICVFLFAFVVPILIITVCYGLMLLRLRSVRLLSGSKEKDRSLRRITRMVLVVVGAFVVCWAPIHIFVIVWTLVDIDRRDPLVVAALHLCIALGYANSSLNPVLYAFLDENFKRCFRQLCRKPCGRPDPSSFSRAREATARERVTACTPSDGPGGGAAA
Turning to B1, the Ki was 295 nM with RP-170, more than 1000 nM in the data set with KW-495 and more than 1000 nM with KW-496.

Source of the values: paper PMC9604311 (International Journal of Molecular Sciences, 2022).
